Assay results as given in patent publication US20100260841A1, “Method of Treating Atherosclerosis, Dyslipidemias and Related Conditions” (priority 2007, published 2010).

Columns and labels:
[1] = test system: lipid altering effects of ERN; details: patients, Compound E 150 mg with ERN
[2] = test system: extended-release niacin (ERN) induced flushing; details: patients
Experimental: (§1) Patients (N=412) were randomized to ERN 1 gram (given as Niaspan®, with no prior titration) plus compound E placebo, 18.75, 37.5, 75 or 150 mg, or double placebo for 4 weeks (acute phase) with doubling of the respective doses for the remaining 4 weeks (chronic phase). Patients reported flushing intensity using the validated Global Flushing Severity Score (GFSS); none/mild (0-3), moderate (4-6), severe (7-9) and extreme (10) in a daily eDiary. A subset of patients was randomized to compound E 150 mg versus placebo in a 4-week crossover safety study.

[3] = patients, Compound E alone or coadministered with ERN
Experimental: as §1

CS(=O)(=O)c1cc(F)cc2c3c(n(Cc4ccc(Cl)cc4)c12)[C@@H](CC(=O)O)CC3 [Compound E]
impact on the lipid altering effects of ERN [1]: did not significantly impact | acute phase flushing intensity compared to ERN alone ([2]; Compound E plus ERN 1 gram, first 4 weeks, GFSS, dose-response p<0.001): significantly lower | chronic phase flushing intensity compared to ERN alone ([2]; Compound E plus ERN, doubled doses, remaining 4 weeks, GFSS, dose-response p=0.021): significantly lower | tolerability and achievement of optimal therapeutic dosing of niacin ([2]; Compound E with ERN treatment): significantly improved | flushing intensity versus ERN alone at each coadministered dose ([2]; each coadministered dose of Compound E (18.75, 37.5, 75 or 150 mg), p<0.05): significantly (p<0.05) lower flushing intensity | incidence of adverse experiences [3]: low incidence
